This is an account of results in patent US12428681B2, “Markers of totipotency and methods of use” (AGENCY FOR SCIENCE, TECHNOLOGY AND RESEARCH, priority 2017, dated 2025).

Common to all, as to assay type: cell-based, mouse
Experiment [1] deals with NELFA-Strep-HA-P2A-EGFP mESCs. The experiment can be described thus: Flow cytometry of NELFA^high subpopulation in NELFA reporter mESCs. On the procedure: (§1) Unless otherwise stated, all mESC lines were cultured in serum-containing ESC medium containing Knockout DMEM, 15% FCS, L-Glutamine, non-essential amino acids, penicillin/streptomycin, 2-mercaptoethanol and supplemented with LIF, 1 μM PD0325901 and 3 µM CHIR99021 (2i′). For serum-free ‘naïve’ culture condition, mESCs were grown in N2B27 medium supplemented with LIF and 2i. For 2-DG experiments, ESCs were grown in serum-containing ESC medium with 4 mM 2-DG (Sigma; D8375) for up to 4 days. For MYC inhibitor treatment, ESCs were grown in serum-containing ESC medium with […] MYC inhibitor, 10058-F4 (Abcam), for 3 days.
Mouse ES cells are grown in standard culture medium containing 4 mM of 2-DG inhibitor for 4 days, at 37° C. with 5% CO2. Culture medium containing 2-DG is changed every day during the induction. […] In a second system, where NELFA is under the control of a Dox inducible promoter, the expression is induced by culturing the ES cells with culture medium containing 0.4 μg/mL of Doxycycline for 16 hours at 37° C. with 5% CO2.
For NELFA-StrepHA-P2A-EGFP reporter ESC line, a donor vector harboring a Strep-HA-P2A-EGFP cassette flanked by NELFA left and right homology arms (826 bp and 924 bp respectively) was co-transfected with the CRISPR-Cas9 sgRNA cloning vector, pX458, containing the Nelfa sgRNA sequence ([…])(SEQ ID NO: 1). Positive transfectants were GFP-sorted and targeted single clones validated by genotyping.
FACSAria Cell Sorter (BD Biosciences) was used to quantify the proportion of EGFPpositive and EGFP-negative cells from the reporter mESC lines. The Moflow sorter was used to sort EGFP-positive and EGFP-negative cells for RNA-seq and NoME-seq studies.
For orientation: A flow cytometer gives signals particle by particle.

In experiment [2] the test system is NELFA reporter mESCs. The experiment can be described thus: RNA-seq transcriptomic profiling of unsorted 2-DG-treated NELFA reporter mESCs. Conditions: adjusted p-value≤0.01 and fold-change≥2. On the procedure: as §1, with “3 days. […]” for “3 days.”
Single- and Paired-end raw sequencing reads were trimmed with Trim Galore (v0.4.2_dev; www.bioinformatics.babraham.ac.uk/projects/trim_galore/) with parameters: --trim-n (single-end, NELFA reporter mESCs) or -paired (paired-end, Doxinducible NELFA-EGFP and 2DG-treated NELFA reporter mESCs). Cleaned reads were then mapped to the mouse GRCm38 reference genome, guided by the vM9 gene model from the GENCODE project using the RSEM pipeline (v1.1.11). […] Reads mapping and quantification of individual repetitive element expression were carried out by using the RepEnrich pipeline, which takes a two-step approach. Briefly, reads were mapped to the mouse genome (mm10) by Bowtie (v1.1.2), and separated into multiple-mapped and uniquely mapped reads. […]

Experiment [3] has as its system NELFA reporter mESCs. The experiment can be described thus: Immunofluorescence for 2C-like markers and H1-mCherry in NELFA reporter mESCs. The procedure: as §1
For generation of histone H1-mCherry stable mESCs, mouse H1e-mCherry fusion DNA sequence was ordered as a Gblock from IDT, amplified and inserted into the expression plasmid, pCAG-IRES-hygromycin. The pCAG-H1-mCherry-IRES-hygromycin plasmid was linearized with FspI and transfected into both NELFA-StrepHA-P2A-EGFP reporter mESCs and Dox-inducible pTRE-NELFA-StrepHA mESCs. Transfected cells were selected with hygromycin B (150 μg/ml) for 4 days before single colony sub-cloning.
Briefly mESCs were grown on gelatin-coated imaging dishes, fixed in 4% PFA for 10 min at room temperature, permeabilized and blocked in 0.1% TRITON™ X-100/1% BSA for 30 min. Cells were incubated in primary antibodies overnight at 4° C. followed by three washes in blocking buffer. […]

For experiment [4], the system named is mESCs. The experiment can be described thus: RT-qPCR of 2C-relevant genes in mESCs. The following applies: 2-DG stimulation alone. The procedure: Unless otherwise stated, all mESC lines were cultured in serum-containing ESC medium containing Knockout DMEM, 15% FCS, L-Glutamine, non-essential amino acids, penicillin/streptomycin, 2-mercaptoethanol and supplemented with LIF, 1 μM PD0325901 and 3 µM CHIR99021 (2i′). For serum-free ‘naïve’ culture condition, mESCs were grown in N2B27 medium supplemented with LIF and 2i. For 2-DG experiments, ESCs were grown in serum-containing ESC medium with 4 mM 2-DG (Sigma; D8375) for up to 4 days. For MYC inhibitor treatment, ESCs were grown in serum-containing ESC medium with […] MYC inhibitor, 10058-F4 (Abcam), for 3 days. siRNAs were purchased from GE Dharmacon and Qiagen and transfected into mESCs using Lipofectamine RNAiMAX according to manufacturer's instructions. Both forward and reverse transfections were carried out. The final concentration of siRNA used was 40 nM per transfection and the effect of knockdown analyzed at 72 h. 0.5-1 μg of total RNA was used as input for cDNA preparation with the SensiFAST cDNA synthesis kit (Bioline; 65054). Reverse transcription was carried out with standard cycling condition as per manufacturer's instructions. […] Relative gene expression fold change was calculated using the delta delta CT method and statistical significance was assessed using a student's T-test.
In general terms: Quantitative PCR measures a nucleic acid by following its amplification.

As for `O=CC[C@@H](O)[C@H](O)[C@H](O)CO` [2-DG, 2-deoxy-D-glucose], in experiment [1] (NELFA reporter mESCs, conventional culture conditions, 4 mM 2-DG, 4 days), the “increase in the NELFA^high subpopulation following 2-DG treatment” value is given as “up to 8 fold”. The “change in Nelfa^high ESC subpopulation (in words)” value in experiment [1] (addition of 2-DG to Nelfa reporter ESCs) is “prominent increase”. Moreover, the “number of genes upregulated after 2-DG treatment” value in experiment [2] stood at 175 genes. Besides, the “expression of MERVL family of retrotransposons and Zscan4 by immunofluorescence” value in experiment [3] (2-DG-treated NELFA-positive mESCs) was “upregulation”. The “H1 localization on heterochromatin in NELFA^high mESCs” value in experiment [3] (NELFA-EGFP reporter mESCs stably expressing H1-mCherry, following 2-DG treatment) is “clear displacement”. Moreover, the “induction of Gata3 by RT-qPCR” value in experiment [4] is reported as “not observed”.
Take `CCc1ccc(/C=C2/SC(=S)NC2=O)cc1` [10058-F4]: the “change in NELFA^high population (in words)” value in experiment [1] (NELFA reporter mESCs, 64 µM MYC inhibitor 10058-F4, 3 days) is listed as “no increase”.
